Measurements from ChEMBL document CHEMBL1145312, “Structure-activity relationships of triazolopyridine oxazole p38 inhibitors: identification of candidates for clinical development” (Bioorg Med Chem Lett, 2006).
Converted amounts (≈) assume the structure as drawn. Each block holds one compound with its values, some of them ahead of it.

Experiments:
[1] = Solubility in PBS buffer at ph 6.5; assay type: physicochemical
[2] = test system: Monocyte; test: Inhibition of LPS-induced TNFalpha production in human monocytes; assay type: functional, cell-based
[3] = Permeability from apical to basolateral side of Caco-2 cell membrane; assay type: ADME, cell-based; conditions: human
[4] = Volume of distribution in rat; assay type: ADME, organism-based; conditions: in vivo, read-out: Vdss
[5] = Bioavailability in rat; assay type: ADME, organism-based; conditions: in vivo
[6] = Volume of distribution in monkey; assay type: ADME, organism-based, Macaca mulatta; conditions: rhesus monkey, in vivo; read-out: Vdss
[7] = Bioavailability in monkey; assay type: ADME, organism-based, Macaca mulatta; conditions: rhesus monkey, in vivo
[8] = target: T1, hERG (KCNH2) (Homo sapiens, UniProt Q12809); test: Inhibition of hERG channel current in HEK293 cells at 1 uM; assay type: toxicity, cell-based; conditions: HEK293 cells that express hERG
[9] = species on record: Rattus norvegicus; test: Inhibition of LPS-induced TNFalpha release in rat; assay type: functional
[10] = target: Mitogen-activated protein kinase 14 (Homo sapiens, UniProt Q16539); test: Inhibition of p38alpha
[11] = species on record: Homo sapiens; test: Inhibition of LPS-induced TNFalpha production in human whole blood; assay type: functional, organism-based
[12] = Permeability from basolateral to apical side of Caco-2 cell membrane; assay type: ADME, cell-based; conditions: human
[13] = Half life in rat; assay type: ADME, organism-based; conditions: in vivo
[14] = Plasma clearance in monkey; assay type: ADME, organism-based, Macaca mulatta; conditions: rhesus monkey
[15] = Half life in monkey; assay type: ADME, organism-based, Macaca mulatta; conditions: rhesus monkey, in vivo
[16] = target: T1, hERG (KCNH2); test: Inhibition of hERG channel current in HEK293 cells at 3 uM; assay type: toxicity, cell-based; conditions: HEK293 cells that express hERG
[17] = Plasma clearance in rat; assay type: ADME, organism-based
[18] = test system: Rattus norvegicus; test: Inhibition of LPS-induced TNFalpha release in rat at 3 mg/kg; assay type: functional
[19] = target: T2, Mitogen-activated protein kinase 12 (Homo sapiens, UniProt P53778); test: Inhibition of p38-gamma
T2 sequence (P53778 whole entry): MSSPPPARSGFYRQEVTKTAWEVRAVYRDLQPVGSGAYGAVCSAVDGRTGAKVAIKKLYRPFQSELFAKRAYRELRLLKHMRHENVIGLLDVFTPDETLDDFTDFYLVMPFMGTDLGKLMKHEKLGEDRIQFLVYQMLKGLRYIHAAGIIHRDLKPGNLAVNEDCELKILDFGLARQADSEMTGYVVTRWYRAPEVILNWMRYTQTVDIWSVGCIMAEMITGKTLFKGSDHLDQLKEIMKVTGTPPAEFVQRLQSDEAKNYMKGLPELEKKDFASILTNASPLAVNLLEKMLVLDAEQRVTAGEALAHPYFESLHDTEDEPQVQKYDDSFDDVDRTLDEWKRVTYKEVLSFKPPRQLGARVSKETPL

[20] = target: Dual specificity mitogen-activated protein kinase kinase 1 (Homo sapiens, UniProt Q02750); test: Inhibition of MKK1
[21] = target: c-Jun N-terminal kinase, JNK (Homo sapiens, UniProt P45983+P53779+P45984); test: Inhibition of JNK; assay type: protein assay
[22] = target: Ribosomal protein S6 kinase alpha-1 (Homo sapiens, UniProt Q15418); test: Inhibition of MAPKAP-K1a
[23] = target: MAP kinase-activated protein kinase 2 (Homo sapiens, UniProt P49137); test: Inhibition of MAPKAP-K2
[24] = target: Ribosomal protein S6 kinase alpha-5 (Homo sapiens, UniProt O75582); test: Inhibition of MSK1
[25] = target: T3, MAP kinase-activated protein kinase 5 (Homo sapiens, UniProt Q8IW41); test: Inhibition of PRAK
T3 sequence (Q8IW41 whole entry): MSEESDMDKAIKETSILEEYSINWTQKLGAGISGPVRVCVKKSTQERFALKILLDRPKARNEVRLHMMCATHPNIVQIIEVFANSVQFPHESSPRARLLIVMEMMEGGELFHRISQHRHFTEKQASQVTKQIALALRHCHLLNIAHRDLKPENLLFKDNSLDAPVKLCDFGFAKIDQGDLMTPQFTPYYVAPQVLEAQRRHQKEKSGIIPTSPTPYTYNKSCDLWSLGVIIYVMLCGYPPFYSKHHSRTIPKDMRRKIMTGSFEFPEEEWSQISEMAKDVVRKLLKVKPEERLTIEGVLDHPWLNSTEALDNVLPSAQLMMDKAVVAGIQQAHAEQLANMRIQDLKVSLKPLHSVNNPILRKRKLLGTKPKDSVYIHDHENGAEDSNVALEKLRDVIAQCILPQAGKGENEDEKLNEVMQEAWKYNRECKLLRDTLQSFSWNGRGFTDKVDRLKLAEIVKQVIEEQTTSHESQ

[26] = target: Protein kinase C alpha type (Homo sapiens, UniProt P17252); test: Inhibition of PKCalpha
[27] = Inhibition of PKC
[28] = target: T4, Serine/threonine-protein kinase Sgk1 (Homo sapiens, UniProt O00141); test: Inhibition of SGK
T4 sequence (O00141 whole entry): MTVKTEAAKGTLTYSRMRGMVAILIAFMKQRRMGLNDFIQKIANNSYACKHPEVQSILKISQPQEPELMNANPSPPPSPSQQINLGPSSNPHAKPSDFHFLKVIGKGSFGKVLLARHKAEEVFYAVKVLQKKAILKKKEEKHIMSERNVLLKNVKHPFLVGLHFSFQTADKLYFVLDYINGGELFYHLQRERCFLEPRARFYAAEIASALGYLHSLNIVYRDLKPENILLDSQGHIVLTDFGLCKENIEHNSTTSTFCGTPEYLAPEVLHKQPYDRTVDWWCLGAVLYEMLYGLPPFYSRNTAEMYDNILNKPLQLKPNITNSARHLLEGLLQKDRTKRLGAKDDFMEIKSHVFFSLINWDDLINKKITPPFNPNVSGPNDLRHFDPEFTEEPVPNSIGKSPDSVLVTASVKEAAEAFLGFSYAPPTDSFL

[29] = target: RAC-alpha serine/threonine-protein kinase (Homo sapiens, UniProt P31749); test: Inhibition of PKBalpha
[30] = target: Ribosomal protein S6 kinase (P70S6K) (Homo sapiens, UniProt P23443+Q9UBS0); test: Inhibition of P70S6K; assay type: protein-complex assay
[31] = target: Glycogen synthase kinase-3 beta (Homo sapiens, UniProt P49841); test: Inhibition of GSK3-beta
[32] = target: Rho-associated protein kinase 2 (Homo sapiens, UniProt O75116); test: Inhibition of ROCK2
[33] = target: AMP-activated protein kinase, AMPK; test: Inhibition of AMPK; assay type: protein-complex assay
[34] = target: T5, Serine/threonine-protein kinase Chk1 (Homo sapiens, UniProt O14757); test: Inhibition of CHK1
T5 sequence (O14757 whole entry): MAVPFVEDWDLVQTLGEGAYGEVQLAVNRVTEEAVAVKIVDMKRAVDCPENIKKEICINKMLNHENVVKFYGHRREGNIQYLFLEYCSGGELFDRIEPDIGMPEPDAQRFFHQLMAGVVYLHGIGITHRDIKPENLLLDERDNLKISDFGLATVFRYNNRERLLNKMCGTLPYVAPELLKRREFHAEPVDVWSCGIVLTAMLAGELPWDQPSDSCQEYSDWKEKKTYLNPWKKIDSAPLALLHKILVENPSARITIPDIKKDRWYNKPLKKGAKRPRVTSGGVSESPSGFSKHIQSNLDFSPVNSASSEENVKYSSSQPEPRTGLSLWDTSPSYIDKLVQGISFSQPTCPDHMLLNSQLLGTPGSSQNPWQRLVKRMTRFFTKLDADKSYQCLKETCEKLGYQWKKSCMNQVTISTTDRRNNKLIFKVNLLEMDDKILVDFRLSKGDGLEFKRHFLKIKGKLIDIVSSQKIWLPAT

[35] = target: Casein kinase II (Homo sapiens, UniProt P19784+P67870+P68400); test: Inhibition of CK2; assay type: protein-complex assay
[36] = target: Tyrosine-protein kinase Lck (Homo sapiens, UniProt P06239); test: Inhibition of Lck
[37] = target: Tyrosine-protein kinase CSK (Homo sapiens, UniProt P41240); test: Inhibition of CSK
[38] = target: Cyclin-dependent kinase 2 (Homo sapiens, UniProt P24941); test: Inhibition of CDK2
[39] = Inhibition of PI3K
[40] = target: Dual specificity tyrosine-phosphorylation-regulated kinase 1A (Homo sapiens, UniProt Q13627); test: Inhibition of DYRK1a
[41] = Inhibition of phosphorylase kinase
[42] = target: Mitogen-activated protein kinase 1 (Homo sapiens, UniProt P28482); test: Inhibition of ERK2
Mitogen-activated protein kinase 1, sequence (P28482 whole entry): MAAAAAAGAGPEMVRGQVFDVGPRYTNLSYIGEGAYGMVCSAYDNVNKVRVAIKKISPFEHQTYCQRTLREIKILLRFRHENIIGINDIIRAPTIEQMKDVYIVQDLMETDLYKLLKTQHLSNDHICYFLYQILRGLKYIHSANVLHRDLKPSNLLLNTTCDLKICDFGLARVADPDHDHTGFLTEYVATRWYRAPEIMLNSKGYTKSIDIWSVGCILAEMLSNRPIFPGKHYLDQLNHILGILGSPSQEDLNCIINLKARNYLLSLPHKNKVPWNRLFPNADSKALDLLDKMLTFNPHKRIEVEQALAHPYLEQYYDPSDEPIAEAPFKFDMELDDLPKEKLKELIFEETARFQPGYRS

T1 sequence (Q12809 whole entry): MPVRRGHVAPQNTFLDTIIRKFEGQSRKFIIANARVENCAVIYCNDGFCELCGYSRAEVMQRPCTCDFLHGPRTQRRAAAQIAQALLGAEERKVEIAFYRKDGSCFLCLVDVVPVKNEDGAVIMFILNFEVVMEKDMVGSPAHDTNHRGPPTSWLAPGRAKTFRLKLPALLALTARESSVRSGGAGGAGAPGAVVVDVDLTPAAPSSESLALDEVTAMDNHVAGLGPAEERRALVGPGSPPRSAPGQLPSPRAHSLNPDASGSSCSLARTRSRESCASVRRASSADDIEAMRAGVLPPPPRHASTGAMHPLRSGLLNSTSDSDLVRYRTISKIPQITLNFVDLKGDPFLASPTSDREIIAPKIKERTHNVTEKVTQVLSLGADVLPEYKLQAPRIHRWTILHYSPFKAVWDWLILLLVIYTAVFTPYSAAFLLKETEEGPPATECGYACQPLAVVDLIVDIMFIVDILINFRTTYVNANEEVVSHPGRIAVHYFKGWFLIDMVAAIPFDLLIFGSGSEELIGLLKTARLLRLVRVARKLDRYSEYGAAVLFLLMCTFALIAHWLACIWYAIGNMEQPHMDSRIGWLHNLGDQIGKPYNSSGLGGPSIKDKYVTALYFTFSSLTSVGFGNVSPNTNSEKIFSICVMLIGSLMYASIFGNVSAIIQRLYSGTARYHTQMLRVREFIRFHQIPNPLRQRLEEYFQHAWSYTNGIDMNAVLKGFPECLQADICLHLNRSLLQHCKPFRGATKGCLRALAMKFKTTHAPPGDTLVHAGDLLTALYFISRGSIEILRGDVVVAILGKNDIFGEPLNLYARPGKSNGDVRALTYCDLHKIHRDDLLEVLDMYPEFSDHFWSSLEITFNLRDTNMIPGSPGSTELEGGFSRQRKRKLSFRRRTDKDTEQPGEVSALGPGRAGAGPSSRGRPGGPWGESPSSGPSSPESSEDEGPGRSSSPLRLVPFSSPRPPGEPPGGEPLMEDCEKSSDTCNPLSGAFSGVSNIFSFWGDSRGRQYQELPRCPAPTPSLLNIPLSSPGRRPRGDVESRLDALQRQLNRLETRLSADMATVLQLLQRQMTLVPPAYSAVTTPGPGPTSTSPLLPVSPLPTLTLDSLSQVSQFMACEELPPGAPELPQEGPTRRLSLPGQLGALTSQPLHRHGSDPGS
Mitogen-activated protein kinase 14, sequence (Q16539 whole entry): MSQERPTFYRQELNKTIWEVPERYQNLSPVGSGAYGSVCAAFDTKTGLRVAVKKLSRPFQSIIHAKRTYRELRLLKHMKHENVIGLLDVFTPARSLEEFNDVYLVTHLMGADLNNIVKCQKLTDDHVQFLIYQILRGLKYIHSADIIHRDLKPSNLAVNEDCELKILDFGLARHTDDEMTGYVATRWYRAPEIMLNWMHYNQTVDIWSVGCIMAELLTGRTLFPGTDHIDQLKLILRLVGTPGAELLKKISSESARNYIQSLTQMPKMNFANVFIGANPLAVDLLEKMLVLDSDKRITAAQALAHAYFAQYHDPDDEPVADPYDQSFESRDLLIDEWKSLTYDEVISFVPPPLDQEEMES
Ribosomal protein S6 kinase alpha-5, sequence (O75582 whole entry): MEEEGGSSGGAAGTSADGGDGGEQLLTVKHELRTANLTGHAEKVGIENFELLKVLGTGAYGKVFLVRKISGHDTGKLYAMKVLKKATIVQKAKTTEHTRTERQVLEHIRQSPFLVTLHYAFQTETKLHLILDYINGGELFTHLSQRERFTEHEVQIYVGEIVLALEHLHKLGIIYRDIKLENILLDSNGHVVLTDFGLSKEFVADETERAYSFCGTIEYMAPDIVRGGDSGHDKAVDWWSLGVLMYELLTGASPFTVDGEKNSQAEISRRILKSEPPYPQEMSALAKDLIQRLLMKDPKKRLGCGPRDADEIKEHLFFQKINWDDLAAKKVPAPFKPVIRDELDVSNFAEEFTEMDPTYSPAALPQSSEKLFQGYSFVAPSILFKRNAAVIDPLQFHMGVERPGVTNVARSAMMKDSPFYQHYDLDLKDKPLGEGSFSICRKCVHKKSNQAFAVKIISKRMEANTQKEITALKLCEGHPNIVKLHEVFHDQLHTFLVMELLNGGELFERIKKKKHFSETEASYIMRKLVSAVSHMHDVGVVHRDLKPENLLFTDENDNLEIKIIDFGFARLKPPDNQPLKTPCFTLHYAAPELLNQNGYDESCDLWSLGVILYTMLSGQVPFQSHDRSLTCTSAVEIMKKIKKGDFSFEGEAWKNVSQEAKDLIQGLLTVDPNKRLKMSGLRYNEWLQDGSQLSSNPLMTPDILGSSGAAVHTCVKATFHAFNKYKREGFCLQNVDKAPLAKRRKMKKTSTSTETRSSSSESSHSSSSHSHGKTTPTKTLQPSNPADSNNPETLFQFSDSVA
Casein kinase II, sequence (P67870 whole entry): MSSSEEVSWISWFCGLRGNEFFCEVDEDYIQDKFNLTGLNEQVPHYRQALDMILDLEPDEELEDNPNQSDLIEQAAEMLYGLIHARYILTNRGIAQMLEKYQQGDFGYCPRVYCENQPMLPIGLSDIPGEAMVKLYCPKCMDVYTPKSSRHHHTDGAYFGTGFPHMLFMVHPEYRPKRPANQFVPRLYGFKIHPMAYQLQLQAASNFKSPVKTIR
Casein kinase II, sequence (P68400 whole entry): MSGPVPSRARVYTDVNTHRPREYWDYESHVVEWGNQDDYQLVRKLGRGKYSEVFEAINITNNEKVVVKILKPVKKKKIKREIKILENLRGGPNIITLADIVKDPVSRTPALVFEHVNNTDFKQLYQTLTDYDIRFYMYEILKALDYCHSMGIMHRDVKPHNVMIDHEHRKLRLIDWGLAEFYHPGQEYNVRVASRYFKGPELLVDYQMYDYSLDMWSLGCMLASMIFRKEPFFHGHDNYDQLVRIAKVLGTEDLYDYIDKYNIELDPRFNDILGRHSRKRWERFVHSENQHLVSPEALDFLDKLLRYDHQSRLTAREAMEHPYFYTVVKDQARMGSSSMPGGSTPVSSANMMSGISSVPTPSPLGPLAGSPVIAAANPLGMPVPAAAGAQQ
Casein kinase II, sequence (P19784 whole entry): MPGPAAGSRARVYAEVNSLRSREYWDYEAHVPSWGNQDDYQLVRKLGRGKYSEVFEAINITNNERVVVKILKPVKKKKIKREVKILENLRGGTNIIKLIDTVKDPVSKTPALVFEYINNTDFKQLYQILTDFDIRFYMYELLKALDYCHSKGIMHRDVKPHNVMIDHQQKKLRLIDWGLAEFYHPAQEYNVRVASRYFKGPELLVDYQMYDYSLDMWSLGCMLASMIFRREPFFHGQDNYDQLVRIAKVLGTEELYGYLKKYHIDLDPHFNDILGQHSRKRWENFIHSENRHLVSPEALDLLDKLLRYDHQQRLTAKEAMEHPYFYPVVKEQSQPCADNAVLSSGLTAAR
Ribosomal protein S6 kinase alpha-1, sequence (Q15418 whole entry): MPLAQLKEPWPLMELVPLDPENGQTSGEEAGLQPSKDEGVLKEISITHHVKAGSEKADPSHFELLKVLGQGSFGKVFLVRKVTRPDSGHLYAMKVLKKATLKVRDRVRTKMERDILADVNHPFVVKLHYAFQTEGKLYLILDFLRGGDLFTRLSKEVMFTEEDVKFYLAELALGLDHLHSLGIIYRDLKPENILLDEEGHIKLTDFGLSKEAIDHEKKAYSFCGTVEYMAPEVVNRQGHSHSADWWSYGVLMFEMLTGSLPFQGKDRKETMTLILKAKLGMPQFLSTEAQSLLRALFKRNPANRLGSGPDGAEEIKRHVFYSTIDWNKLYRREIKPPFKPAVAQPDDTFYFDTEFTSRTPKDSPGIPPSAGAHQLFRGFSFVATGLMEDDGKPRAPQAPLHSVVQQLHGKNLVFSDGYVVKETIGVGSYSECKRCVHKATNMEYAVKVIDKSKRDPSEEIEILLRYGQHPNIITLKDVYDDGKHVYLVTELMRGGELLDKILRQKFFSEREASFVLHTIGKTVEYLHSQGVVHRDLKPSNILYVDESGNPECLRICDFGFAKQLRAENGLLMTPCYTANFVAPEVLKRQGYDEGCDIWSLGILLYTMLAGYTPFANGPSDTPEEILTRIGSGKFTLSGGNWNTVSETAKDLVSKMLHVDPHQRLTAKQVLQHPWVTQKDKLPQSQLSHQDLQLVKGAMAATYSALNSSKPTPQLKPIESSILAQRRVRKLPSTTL
Glycogen synthase kinase-3 beta, sequence (P49841 whole entry): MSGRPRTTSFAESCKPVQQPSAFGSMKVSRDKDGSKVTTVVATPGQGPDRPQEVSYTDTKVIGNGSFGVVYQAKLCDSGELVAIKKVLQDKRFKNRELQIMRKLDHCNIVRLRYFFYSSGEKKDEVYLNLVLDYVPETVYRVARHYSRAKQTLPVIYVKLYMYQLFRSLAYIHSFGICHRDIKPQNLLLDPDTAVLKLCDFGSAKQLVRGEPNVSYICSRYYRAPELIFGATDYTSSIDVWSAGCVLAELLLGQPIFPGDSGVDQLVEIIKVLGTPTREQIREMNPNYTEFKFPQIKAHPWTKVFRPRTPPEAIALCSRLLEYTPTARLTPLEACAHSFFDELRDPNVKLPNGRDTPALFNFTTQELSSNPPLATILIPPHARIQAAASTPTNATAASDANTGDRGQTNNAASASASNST

solubility [1]: 8.1 µg/mL (≈ 23.8 µM) | IC50 [2]: 0.025 µM | Papp A→B [3]: 43 ×10⁻⁶ cm/s | Vd [4]: 0.8 L/kg | bioavailability [5]: 58% | Vd [6]: 1.3 L/kg | bioavailability [7]: 40% | IC50 [10]: 0.0058 µM | IC50 [11]: 0.259 µM | Papp B→A [12]: 29 ×10⁻⁶ cm/s
SMILES: CC(C)c1nnc2ccc(-c3ocnc3-c3cc(F)ccc3F)cn12
inhibition at 1 µM [8]: 0% | ED50 [9]: 0.3 mg/kg

SMILES: CC(C)c1nnc2ccc(-c3ocnc3-c3cccc(Cl)c3)cn12
solubility [1]: 5.2 µg/mL (≈ 15.3 µM) | IC50 [2]: 0.0523 µM | Vd [4]: 1 L/kg | half-life [13]: 1.6 h | bioavailability [5]: 37% | clearance [14]: 15 mL/min/kg | Vd [6]: 1 L/kg | half-life [15]: 1.1 h | bioavailability [7]: 19% | inhibition at 3 µM [16]: 14% | ED50 [9]: 2.4 mg/kg | clearance [17]: 17 mL/min/kg | IC50 [10]: 0.0135 µM | IC50 [11]: 0.55 µM

solubility [1]: 81 µg/mL (≈ 227 µM) | IC50 [2]: 0.0245 µM | IC50 [19]: > 10 µM | IC50 [20]: > 10 µM | IC50 [10]: 0.0025 µM | IC50 [11]: 0.38 µM | IC50 [21]: > 10 µM | IC50 [22]: > 10 µM | IC50 [23]: > 10 µM | IC50 [24]: > 10 µM | IC50 [25]: > 10 µM | IC50 [26]: > 10 µM | IC50 [27]: > 10 µM | IC50 [28]: > 10 µM | IC50 [29]: > 10 µM | IC50 [30]: > 10 µM | IC50 [31]: > 10 µM | IC50 [32]: > 10 µM | IC50 [33]: > 10 µM | IC50 [34]: > 10 µM | IC50 [35]: > 10 µM | IC50 [36]: > 10 µM | IC50 [37]: > 10 µM | IC50 [38]: > 10 µM | IC50 [39]: > 10 µM | IC50 [40]: > 10 µM | IC50 [41]: > 10 µM | IC50 [42]: > 10 µM
SMILES: CC(C)c1nnc2ccc(-c3ocnc3-c3ccc(F)cc3Cl)cn12
inhibition at 3 µM [16]: 0% | inhibition in vivo at 3 mg/kg [18]: 94%
